From article PMC12714101, “CD160-Derived Peptide as a Bidirectional Inhibitor Toward Immune Checkpoints BTLA/HVEM and HVEM/LIGHT” (Journal of Medicinal Chemistry, 2025)
Where a SMILES comes first, the peptide text is derived from it.

What was measured:
BTLA/HVEM complex = molecular target: T1, BTLA/HVEM complex (Homo sapiens, UniProt Q92956); test: ELISA inhibition of BTLA/HVEM complex formation; type: biochemical; conditions: peptide 16.67 μM, immobilized HVEM-His, BTLA-Fc 5 μg/mL, PBS-T, 37 °C, mean of three independent experiments
T1 construct: purchased ACROBiosystems HVM-H52E9 (HVEM-His); BTA-H5255 (BTLA-Fc)
T1 sequence (Q92956 39-202 limits assumed): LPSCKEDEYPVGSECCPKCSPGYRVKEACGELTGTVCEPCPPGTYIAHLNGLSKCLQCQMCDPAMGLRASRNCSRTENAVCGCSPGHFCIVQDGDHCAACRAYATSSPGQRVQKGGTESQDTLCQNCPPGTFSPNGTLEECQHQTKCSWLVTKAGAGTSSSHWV
Protocol: In the subsequent stage of the study, the potential of the obtained compounds to inhibit the interaction between BTLA and HVEM proteins was evaluated using ELISA, following the methodology described in our previous studies. , HVEM was immobilized on the plate and incubated with peptides at three different concentrations, followed by the addition of Fc-tagged BTLA. Detection was carried out using horseradish peroxidase (HRP) conjugated with anti-human IgG and 3,3′,5,5′-tetramethylbenzidine (TMB) as a substrate. Signal intensity was directly proportional to the amount of BTLA bound to HVEM and inversely proportional to the inhibitory activity of the tested peptides. As a control, BTLA and HVEM were incubated in the absence of peptides.
Recombinant human HVEM protein with a His tag was purchased from ACROBiosystems, Newark, DE, USA (no. HVM-H52E9). Recombinant human protein BTLA-Fc and LIGHT-Fc were also purchased from ACROBiosystems, Newark, DE, USA (no. BTA-H5255 and no. LIT-H5269).
ELISA was performed using transparent 96-well NUNC Maxisorp plates (Thermo Fisher Scientific, Waltham, MA, USA). In the first step, HVEM-His, dissolved in PBS at a concentration of 5 μg/mL (100 μL/well), was immobilized on the plate by overnight incubation at 4 °C. Wells were then blocked with 5% bovine serum albumin (BSA) in PBS containing 0.05% Tween 20 (PBS-T) (200 μL/well). Next, peptides dissolved in PBS-T at concentrations of 150, 50, and 16.67 μM were added to the wells (100 μL/well). Following this, BTLA-Fc in PBS-T at a concentration of 5 μg/mL (100 μL/well) was applied. In the next step, goat anti-human IgG antibody conjugated with the HRP (Bio-Rad Laboratories, Hercules, CA, USA) in PBS-T at a ratio of 1:30,000 (v/v) was added (100 μL/well). Colorimetric detection was performed by adding 100 μL of TMB substrate (Thermo Fisher Scientific, Waltham, MA, USA) to each well and incubating the plate in the dark. At each stage, plates were incubated at 37 °C with continuous shaking for 1 h (except TMB, which was incubated for 15 min). After each incubation, wells were washed five times with PBS-T. Absorbance was measured using an Infinite M200 Pro Reader (Tecan Group Ltd., Männedorf, Switzerland) at wavelengths of 650 nm (measurement wavelength) and 492 nm (reference wavelength). Inhibition assays for the HVEM/LIGHT complex were conducted using the same approach, except that LIGHT was used instead of BTLA. The BTLA/HVEM and HVEM/LIGHT complexes without peptides served as controls. Inhibition percentages were calculated based on the assumption that PBS-T has no effect on the formation of BTLA/HVEM or HVEM/LIGHT complexes. Each ELISA was conducted in at least three independent replicates. The data were analyzed using GraphPad Prism 8 software (San Diego, CA, USA).

[1] = NMR in PBS-buffered aqueous solution (aggregation); type: physicochemical; conditions: 298 K, 2 mM sample
Protocol: First, circular dichroism (CD) spectra were recorded for this peptide in H2O and phosphate-buffered saline (PBS). In water, the peptide adopts a disordered structure, characterized by a minimum at 197 nm. In contrast, in PBS, it undergoes conformational ordering, forming a β-strand structure with a minimum at 214 nm and maximum at 197 nm. […] To further investigate the peptide’s structure, nuclear magnetic resonance (NMR) spectra were acquired in both buffer-free aqueous solution and PBS-buffered aqueous solution. […] Narrow amide proton chemical shift dispersion (ΔδHN = 0.7 ppm), absence of medium- and long-range nuclear Overhauser effects (NOEs), and ^3JNα coupling constants indicate a lack of well-defined secondary structure (Figures S9 and S10). […] Molecular dynamics simulations with NOE-derived distance restraints generated an ensemble of structures showing high conformational diversity. […]
NMR spectra were acquired at 298 K on Bruker spectrometers (^1H 700.55 MHz, 16.4 T and 500.13 MHz, 11.7 T). […] The ^1H–^13C HSQC spectrum was recorded at the natural abundance of the ^13C isotope. […] Spectra were processed and analyzed, respectively, with Topspin 4.4.1 (Bruker, Ettlingen, Germany) and NMRFAM-Sparky software packages. […]

CC[C@@H]1NC(=O)[C@@H](NC(=O)[C@H](CCC(N)=O)NC(=O)[C@H](Cc2ccc(O)cc2)NC(C)=O)CSSC[C@@H](C(=O)N[C@@H](Cc2c[nH]cn2)C(=O)N[C@@H](Cc2ccccc2)C(=O)N[C@@H](Cc2ccccc2)C(N)=O)NC(=O)[C@H](CCC(N)=O)NC(=O)[C@H](CC(C)C)NC(=O)[C@H](CCCNC(=N)N)NC(=O)[C@H]([C@@H](C)CC)NC(=O)CNC(=O)[C@H](CO)NC(=O)[C@H](CCCCN)NC(=O)[C@H](CCC(N)=O)NC(=O)[C@H](CO)NC(=O)[C@H](CCCNC(=N)N)NC(=O)[C@H](C)NC1=O [A5, CD160(110–128) ^(C113X,G125C)] (HELM PEPTIDE1{[ac].Y.Q.C.[Abu].A.R.S.Q.K.S.G.I.R.L.Q.C.H.F.F.[am]}$PEPTIDE1,PEPTIDE1,4:R3-17:R3$$$V2.0)
inhibition at 16.67 µM (BTLA/HVEM complex): 6.24%
Aggregation in PBS (NMR signal broadening) [1]: peptide aggregation
